Test results reported in PubChem BioAssay AID1963959 (Molecular Pharmacology Branch, DTP, NCI, 2024).

Test system: T-47D spheroids with HUVEC/MSC, viability
Assay: Anticancer human tumor T-47D cell line growth inhibition [PI3K];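 further: spheroids exposed to agents for seven days before reading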;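 on viability, T/C: percent of DMSO vehicle control luminescence so 100% = untreated growth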
Conditions: for viability, T/C: stronger effect = lower value
Summary of the method: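 Agents were dosed from a top concentration near clinical Cmax (otherwise 10 microM) in half-log decrements, alone or combined with PI3K inhibitors. The spheroids contain tumor cells plus endothelial (HUVEC) and MSC stroma; viability is measured.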

[1] = curve of first compound, second compound 0.00316 µM
[2] = curve of first compound, second compound 0.01 µM
[3] = curve of first compound, second compound 0.0316 µM
[4] = curve of first compound, second compound 0.1 µM
[5] = curve of first compound, second compound 0.316 µM
[6] = curve of first compound, second compound 1 µM
[7] = second compound 0.00316 µM, first compound 0.0316 µM
[8] = second compound 0.00316 µM, first compound 0.1 µM
[9] = second compound 0.01 µM, first compound 0.0316 µM
[10] = second compound 0.01 µM, first compound 0.1 µM
[11] = second compound 0.0316 µM, first compound 0.0316 µM
[12] = second compound 0.0316 µM, first compound 0.1 µM
[13] = second compound 0.0316 µM, first compound 0.316 µM
[14] = second compound 0.0316 µM, first compound 1 µM
[15] = second compound 0.0316 µM, first compound 3.16 µM
[16] = second compound 0.0316 µM, first compound 10 µM
[17] = second compound 0.1 µM, first compound 0.0316 µM
[18] = second compound 0.1 µM, first compound 0.1 µM
[19] = second compound 0.1 µM, first compound 0.316 µM
[20] = second compound 0.1 µM, first compound 1 µM
[21] = second compound 0.1 µM, first compound 3.16 µM
[22] = second compound 0.1 µM, first compound 10 µM
[23] = second compound 0.316 µM, first compound 0.0316 µM
[24] = second compound 0.316 µM, first compound 0.1 µM
[25] = second compound 0.316 µM, first compound 0.316 µM
[26] = second compound 0.316 µM, first compound 1 µM
[27] = second compound 0.316 µM, first compound 3.16 µM
[28] = second compound 0.316 µM, first compound 10 µM
[29] = second compound 1 µM, first compound 0.0316 µM
[30] = second compound 1 µM, first compound 0.1 µM
[31] = second compound 1 µM, first compound 0.316 µM
[32] = second compound 1 µM, first compound 1 µM
[33] = second compound 1 µM, first compound 3.16 µM
[34] = second compound 1 µM, first compound 10 µM
[35] = second compound 0.0316 µM, first compound 0.000316 µM
[36] = second compound 0.0316 µM, first compound 0.001 µM
[37] = second compound 0.0316 µM, first compound 0.00316 µM
[38] = second compound 0.0316 µM, first compound 0.01 µM
[39] = second compound 0.1 µM, first compound 0.000316 µM
[40] = second compound 0.1 µM, first compound 0.001 µM
[41] = second compound 0.1 µM, first compound 0.00316 µM
[42] = second compound 0.1 µM, first compound 0.01 µM
[43] = second compound 0.316 µM, first compound 0.000316 µM
[44] = second compound 0.316 µM, first compound 0.001 µM
[45] = second compound 0.316 µM, first compound 0.00316 µM
[46] = second compound 0.316 µM, first compound 0.01 µM
[47] = second compound 1 µM, first compound 0.000316 µM
[48] = second compound 1 µM, first compound 0.001 µM
[49] = second compound 1 µM, first compound 0.00316 µM
[50] = second compound 1 µM, first compound 0.01 µM
[51] = curve of first compound, second compound 3.16 µM
[52] = curve of first compound, second compound 10 µM
[53] = second compound 3.16 µM, first compound 0.0316 µM
[54] = second compound 3.16 µM, first compound 0.1 µM
[55] = second compound 10 µM, first compound 0.0316 µM
[56] = second compound 10 µM, first compound 0.1 µM

Cn1ncc(Cl)c1-c1cc(C(=O)NC(CN)Cc2cccc(F)c2)sc1Cl (centres undefined) + CC(Nc1ccc2c(c1)OCCn1cc(N3C(=O)OCC3C(F)F)nc1-2)C(N)=O
IC50 [1]: > 10000 nM | IC50 [2]: > 10000 nM | IC50 [3]: > 10000 nM | IC50 [4]: > 10000 nM | IC50 [5]: > 10000 nM | IC50 [6]: < 31.6 nM | viability, T/C [7]: 91.4% | viability, T/C [8]: 86.4% | viability, T/C (second compound 0.00316 µM, first compound 0.316 µM): 80.5% | viability, T/C (second compound 0.00316 µM, first compound 1 µM): 81.8% | viability, T/C (second compound 0.00316 µM, first compound 3.16 µM): 73.7% | viability, T/C (second compound 0.00316 µM, first compound 10 µM): 81.5% | viability, T/C [9]: 91.2% | viability, T/C [10]: 89.6% | viability, T/C (second compound 0.01 µM, first compound 0.316 µM): 82.9% | viability, T/C (second compound 0.01 µM, first compound 1 µM): 70.2% | viability, T/C (second compound 0.01 µM, first compound 3.16 µM): 65.5% | viability, T/C (second compound 0.01 µM, first compound 10 µM): 87.9% | viability, T/C [11]: 82.1% | viability, T/C [12]: 82.7% | viability, T/C [13]: 68.1% | viability, T/C [14]: 67.8% | viability, T/C [15]: 59.5% | viability, T/C [16]: 90.9% | viability, T/C [17]: 95.7% | viability, T/C [18]: 92.7% | viability, T/C [19]: 71.8% | viability, T/C [20]: 55.6% | viability, T/C [21]: 58.9% | viability, T/C [22]: 75% | viability, T/C [23]: 71.4% | viability, T/C [24]: 59.7% | viability, T/C [25]: 60.8% | viability, T/C [26]: 49.7% | viability, T/C [27]: 47.2% | viability, T/C [28]: 64.6% | viability, T/C [29]: 50.8% | viability, T/C [30]: 49.5% | viability, T/C [31]: 49.8% | viability, T/C [32]: 45.5% | viability, T/C [33]: 50.3% | viability, T/C [34]: 59.3%

Cn1ncc(Cl)c1-c1cc(C(=O)NC(CN)Cc2cccc(F)c2)sc1Cl (centres undefined)
viability, T/C (compound 0.0316 µM): 102% [middle of 4 runs] | viability, T/C (compound 0.316 µM): 79.4% [middle of 4 runs] | viability, T/C (compound 1 µM): 81.8% [middle of 4 runs] | viability, T/C (compound 3.16 µM): 70.3% [middle of 4 runs] | viability, T/C (compound 10 µM): 89% [middle of 4 runs] | IC50 (curve of compound): > 10000 nM

Cn1ncnc1[C@H]1c2n[nH]c(=O)c3cc(F)cc(c23)N[C@@H]1c1ccc(F)cc1 + CC(Nc1ccc2c(c1)OCCn1cc(N3C(=O)OCC3C(F)F)nc1-2)C(N)=O
IC50 [1]: > 100 nM | IC50 [2]: > 100 nM | IC50 [3]: > 100 nM | IC50 [4]: > 100 nM | IC50 [5]: > 100 nM | IC50 [6]: > 100 nM | viability, T/C (second compound 0.00316 µM, first compound 0.000316 µM): 88.8% | viability, T/C (second compound 0.00316 µM, first compound 0.001 µM): 82.8% | viability, T/C (second compound 0.00316 µM, first compound 0.00316 µM): 109% | viability, T/C (second compound 0.00316 µM, first compound 0.01 µM): 86.9% | viability, T/C [7]: 96.3% | viability, T/C [8]: 112% | viability, T/C (second compound 0.01 µM, first compound 0.000316 µM): 113% | viability, T/C (second compound 0.01 µM, first compound 0.001 µM): 78.7% | viability, T/C (second compound 0.01 µM, first compound 0.00316 µM): 80.3% | viability, T/C (second compound 0.01 µM, first compound 0.01 µM): 96.2% | viability, T/C [9]: 91.3% | viability, T/C [10]: 89.4% | viability, T/C [35]: 108% | viability, T/C [36]: 74.7% | viability, T/C [37]: 88.8% | viability, T/C [38]: 85% | viability, T/C [11]: 81.2% | viability, T/C [12]: 75.8% | viability, T/C [39]: 79.2% | viability, T/C [40]: 76.7% | viability, T/C [41]: 78.3% | viability, T/C [42]: 81.6% | viability, T/C [17]: 86.5% | viability, T/C [18]: 76.2% | viability, T/C [43]: 77.1% | viability, T/C [44]: 80.1% | viability, T/C [45]: 57.1% | viability, T/C [46]: 65.6% | viability, T/C [23]: 62.3% | viability, T/C [24]: 61.9% | viability, T/C [47]: 61.5% | viability, T/C [48]: 48.5% | viability, T/C [49]: 54.2% | viability, T/C [50]: 58% | viability, T/C [29]: 55.2% | viability, T/C [30]: 49.8%

CC(C)NCC(C(=O)N1CCN(c2ncnc3c2C(C)CC3O)CC1)c1ccc(Cl)cc1 (centres undefined) + CC(Nc1ncnc2nc[nH]c12)c1cc2cccc(Cl)c2c(=O)n1-c1ccccc1
IC50 [3]: > 10000 nM | IC50 [4]: > 10000 nM | IC50 [5]: > 10000 nM | IC50 [6]: > 10000 nM | IC50 [51]: > 10000 nM | IC50 [52]: > 10000 nM | viability, T/C [11]: 107% | viability, T/C [12]: 73.4% | viability, T/C [13]: 91.6% | viability, T/C [14]: 81.4% | viability, T/C [15]: 59.9% | viability, T/C [16]: 57.2% | viability, T/C [17]: 111% | viability, T/C [18]: 75.5% | viability, T/C [19]: 88.5% | viability, T/C [20]: 66.2% | viability, T/C [21]: 60.2% | viability, T/C [22]: 63.6% | viability, T/C [23]: 98.3% | viability, T/C [24]: 78.6% | viability, T/C [25]: 77.4% | viability, T/C [26]: 65.9% | viability, T/C [27]: 65.2% | viability, T/C [28]: 62.2% | viability, T/C [29]: 79.8% | viability, T/C [30]: 104% | viability, T/C [31]: 90.1% | viability, T/C [32]: 63.4% | viability, T/C [33]: 61.9% | viability, T/C [34]: 60.4% | viability, T/C [53]: 98.7% | viability, T/C [54]: 84.4% | viability, T/C (second compound 3.16 µM, first compound 0.316 µM): 81.7% | viability, T/C (second compound 3.16 µM, first compound 1 µM): 87.5% | viability, T/C (second compound 3.16 µM, first compound 3.16 µM): 55.3% | viability, T/C (second compound 3.16 µM, first compound 10 µM): 62.9% | viability, T/C [55]: 93.5% | viability, T/C [56]: 93.1% | viability, T/C (second compound 10 µM, first compound 0.316 µM): 87.3% | viability, T/C (second compound 10 µM, first compound 1 µM): 74% | viability, T/C (second compound 10 µM, first compound 3.16 µM): 67.3% | viability, T/C (second compound 10 µM, first compound 10 µM): 57.9%

CC(C)n1nc(-c2ccc3oc(N)nc3c2)c2c(N)ncnc21 + CC(Nc1ncnc2nc[nH]c12)c1cc2cccc(Cl)c2c(=O)n1-c1ccccc1
IC50 [3]: 70.5 nM | IC50 [4]: 83.5 nM | IC50 [5]: 61.8 nM | IC50 [6]: 72.2 nM | IC50 [51]: 64.3 nM | IC50 [52]: 50.9 nM | viability, T/C [35]: 116% | viability, T/C [36]: 103% | viability, T/C [37]: 98.8% | viability, T/C [38]: 97.3% | viability, T/C [11]: 90% | viability, T/C [12]: 33.1% | viability, T/C [39]: 92.2% | viability, T/C [40]: 76.5% | viability, T/C [41]: 87.8% | viability, T/C [42]: 92.8% | viability, T/C [17]: 79.2% | viability, T/C [18]: 44.6% | viability, T/C [43]: 93.5% | viability, T/C [44]: 107% | viability, T/C [45]: 91.3% | viability, T/C [46]: 104% | viability, T/C [23]: 67.6% | viability, T/C [24]: 37.3% | viability, T/C [47]: 86.4% | viability, T/C [48]: 107% | viability, T/C [49]: 78.4% | viability, T/C [50]: 90% | viability, T/C [29]: 83.7% | viability, T/C [30]: 36.6% | viability, T/C (second compound 3.16 µM, first compound 0.000316 µM): 99.4% | viability, T/C (second compound 3.16 µM, first compound 0.001 µM): 94.2% | viability, T/C (second compound 3.16 µM, first compound 0.00316 µM): 86.9% | viability, T/C (second compound 3.16 µM, first compound 0.01 µM): 76.2% | viability, T/C [53]: 82.2% | viability, T/C [54]: 33.1% | viability, T/C (second compound 10 µM, first compound 0.000316 µM): 95% | viability, T/C (second compound 10 µM, first compound 0.001 µM): 75.1% | viability, T/C (second compound 10 µM, first compound 0.00316 µM): 80.5% | viability, T/C (second compound 10 µM, first compound 0.01 µM): 75.6% | viability, T/C [55]: 61.4% | viability, T/C [56]: 35.1%
